Assay results reported in PubChem BioAssay (NCI).
Several values for one entry are separate records, joined by “and”; a condition that tells them apart may be missing. Equal entries are not always repeated.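 Method: 48-hour compound exposure of cells in 96-well plates, five concentrations, linear interpolation of endpoints. GI50 marks 50% less growth. TGI: total growth inhibition.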

How the values were obtained:
Experiment in all cases: NCI anticancer screen, dose series, 48 h
COLO 205 colon = test system: COLO 205 colon
EKVX NSCLC = test system: EKVX NSCLC
HCT-116 colon = test system: HCT-116 colon
HT29 colon = test system: HT29 colon
NCI-H23 lung = test system: NCI-H23 lung
RPMI-8226 leukemia = test system: RPMI-8226 leukemia
SF-268 CNS = test system: SF-268 CNS
SK-MEL-2 melanoma = test system: SK-MEL-2 melanoma
SK-MEL-28 melanoma = test system: SK-MEL-28 melanoma
U251 CNS = test system: U251 CNS

| Structure (SMILES) | GI50 (COLO 205 colon) | TGI (COLO 205 colon) | GI50 (EKVX NSCLC) | TGI (EKVX NSCLC) | GI50 (HCT-116 colon) | TGI (HCT-116 colon) | GI50 (HT29 colon) | TGI (HT29 colon) | GI50 (NCI-H23 lung) | TGI (NCI-H23 lung) | GI50 (RPMI-8226 leukemia) | TGI (RPMI-8226 leukemia) | GI50 (SF-268 CNS) | TGI (SF-268 CNS) | GI50 (SK-MEL-2 melanoma) | TGI (SK-MEL-2 melanoma) | GI50 (SK-MEL-28 melanoma) | TGI (SK-MEL-28 melanoma) | GI50 (U251 CNS) | TGI (U251 CNS) |
| --- | --- | --- | --- | --- | --- | --- | --- | --- | --- | --- | --- | --- | --- | --- | --- | --- | --- | --- | --- | --- |
| COc1cc(C2NC(=O)c3ccccc3N2)ccc1OCCCCCOc1c(OC)cc(C2=NOC(c3cc(OC)c(OC)c(OC)c3)C2)cc1OC (configuration not stated) | > 59 µM | > 100 µM | 0.365 µM | > 100 µM | 0.433 µM | 32.4 µM | > 100 µM | > 100 µM | 0.484 µM | > 80 µM | 0.0754 µM | 1.1 µM | 20.8 µM | > 100 µM | 35.9 µM | > 100 µM | 4.13 µM | > 100 µM | 19.6 µM | > 100 µM |
| Brc1cccc(C=NC23CC4CC(CC(C4)C2)C3)c1 |  | > 100 µM |  | > 100 µM |  | > 100 µM |  | > 100 µM |  | > 100 µM |  | > 100 µM |  | > 100 µM |  | > 100 µM |  | > 100 µM |  | > 100 µM |
| O=c1[nH]ncc(Br)c1Br | 1.91 µM | 3.32 µM | 2.87 µM | 13.1 µM | 1.8 µM | 3.42 µM | 1.9 µM | 3.5 µM | 1.92 µM | 3.54 µM | 1.91 µM | 6.18 µM | 3.02 µM | 12.6 µM | 2.16 µM | 5.62 µM | 1.74 µM | 3.12 µM | 1.66 µM | 3.02 µM |
| Cc1ccc2c(c1)[n+]([O-])c(N)n[n+]2[O-] |  | > 100 µM |  | > 100 µM |  | > 100 µM |  | > 100 µM |  | > 100 µM |  | > 100 µM |  | > 100 µM |  | > 100 µM |  | > 100 µM |  | > 100 µM |
| COc1ccc(/C=C/CN(C)CCc2ccccc2)cc1OC |  | > 100 µM |  | > 100 µM |  | > 100 µM |  | > 100 µM |  | > 100 µM |  | > 100 µM |  | > 100 µM |  | > 100 µM |  | > 100 µM |  | > 100 µM |
| O=c1c2cc([N+](=O)[O-])ccc2sc2ccsc12 |  | > 100 µM |  | > 100 µM |  | > 100 µM |  | > 100 µM |  | > 100 µM |  | > 100 µM |  | > 100 µM |  | > 100 µM |  | > 100 µM |  | > 100 µM |
| CN1CCN(C(=O)OCc2nc3c(N4CCOCC4)nc(Cl)nc3n2C)CC1 | 1.44 µM | 4.1 µM | 1.59 µM | 2.98 µM | 0.343 µM | 1.62 µM | 0.898 µM | 3.17 µM | 1.55 µM | 3.3 µM | 0.33 µM | 1.63 µM | 1.59 µM | 3.72 µM | 1.62 µM | 3.45 µM | 1.58 µM | 3.11 µM | 1.52 µM | 3.39 µM |
| O=C1c2cc(Cl)ccc2S(=O)(=O)c2c(NCCCNCCO)nc3ccccc3c21 | 1.01 µM | 2.35 µM | 1.66 µM | 4.83 µM | 1.49 µM | 3.26 µM | 1.4 µM | 2.94 µM | 1.77 µM | 4.4 µM | 0.888 µM | 3.28 µM | 1.7 µM | 4.37 µM | 1.93 µM | 4.74 µM | 1.76 µM | 3.39 µM | 1.62 µM | 3.18 µM |
| [Cl-].[Dy+3].[O-]/N=C(\c1ccccc1)c1ccccn1.[O-]/N=C(\c1ccccc1)c1ccccn1.[O-]/N=C(\c1ccccc1)c1ccccn1 | 33.5 µM | > 100 µM | 31.2 µM | > 100 µM | 49.8 µM | > 100 µM | 45.9 µM | > 100 µM | 37.2 µM | > 100 µM | 45.1 µM | > 100 µM | 30.2 µM | 98.9 µM | 27.3 µM | 64.8 µM | 27.6 µM | 90.8 µM | 47.5 µM | > 100 µM |
| CC[C@@H]1C(=O)N(C)c2cnc(Nc3ccc(C(=O)NC4CCN(C)CC4)cc3OC)nc2N1C1CCCC1 | 0.00326 µM and < 0.01 µM | 0.111 µM | 0.0263 µM and 0.161 µM | > 10 µM and 21.5 µM | 0.00366 µM and < 0.01 µM | > 4.05 µM and 1.45 µM | 0.0036 µM and < 0.01 µM | > 4.71 µM and 10.3 µM | 0.00443 µM and < 0.01 µM | > 5.03 µM and 6.4 µM | 0.0198 µM and 0.0395 µM | 1.69 µM and 1.91 µM | 0.0156 µM and < 0.01 µM | > 10 µM and 7.8 µM |  | > 10 µM and 6.29 µM |  | 3.32 µM and 2.59 µM | 0.00492 µM and < 0.01 µM | > 10 µM and 7.79 µM |
| CC(=O)OC[C@]1(C)C=C2C(=O)[C@](C)(O)C3(CC3)C(C)=C2[C@H]1O | 0.11 µM | 0.308 µM | 0.252 µM | 1.2 µM | 0.0321 µM | > 100 µM | 0.0339 µM | > 100 µM | 0.0633 µM | 0.367 µM | 13.9 µM | > 81.5 µM | 0.0384 µM | 0.499 µM | 0.127 µM | 0.345 µM | 0.215 µM | 0.575 µM | 0.068 µM | 6.16 µM |
| Oc1ccc2ccccc2c1N=Nc1nccs1 | 1.6 µM | 13.6 µM | 0.807 µM | > 54.3 µM | 0.213 µM | 6.09 µM | 1.72 µM | 23.3 µM | 5.83 µM | 27.8 µM | 0.187 µM |  | 0.312 µM | > 100 µM | 3.09 µM | 34.5 µM | 2.55 µM | 18.6 µM | 0.29 µM | 13.4 µM |
